The target in assay [1] is T1, RXFP3 (Homo sapiens, UniProt Q9NSD7).
T1 construct: expressed in transfected cells; host or cells: CHO-K1 (ATCC), stably transfected
T1 sequence (Q9NSD7 1-469): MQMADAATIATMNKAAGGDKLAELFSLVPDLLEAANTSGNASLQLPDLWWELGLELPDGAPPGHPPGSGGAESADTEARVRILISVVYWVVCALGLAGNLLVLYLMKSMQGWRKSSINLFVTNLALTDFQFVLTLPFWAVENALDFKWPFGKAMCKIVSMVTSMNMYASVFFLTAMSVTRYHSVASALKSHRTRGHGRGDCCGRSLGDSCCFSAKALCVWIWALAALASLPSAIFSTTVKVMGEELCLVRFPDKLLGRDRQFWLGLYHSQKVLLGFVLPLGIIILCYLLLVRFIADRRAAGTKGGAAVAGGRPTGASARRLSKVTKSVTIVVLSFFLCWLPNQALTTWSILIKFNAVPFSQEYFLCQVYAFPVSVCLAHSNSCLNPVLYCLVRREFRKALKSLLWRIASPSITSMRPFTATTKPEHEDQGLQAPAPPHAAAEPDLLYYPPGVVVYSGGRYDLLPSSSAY
The experiment in a line: Competition binding in CHO-K1-RXFP3 cells (Eu-H3B1-22R). The settings on record: CHO-K1 cells stably transfected with RXFP3; competition with 5 nM Eu-H3B1-22R; read-out: RXFP3 Binding Ki. On the procedure:
(§1) Chinese hamster ovary CHO-K1 cells (sourced from American Type Culture Collection (ATCC), Maryland, USA) stably transfected with RXFP3[33] or RXFP4[9] were plated out onto precoated poly-L-lysine 96-well view plates at a density of 50 000 cells per well. Medium was aspirated off and the cells were washed with phosphate-buffered saline (PBS) before competition binding assays were performed with 5 nM Eu-H3B1–22R[34] (RXFP3 ligand) or 5 nM Eu-DTPA-mINSL5[9] (RXFP4 ligand) as previously described. Competition binding curves were performed in triplicate and each experiment was performed independently at least three times. Fluorescent measurements were carried out on a BMG POLARstar plate reader (BMG Labtech, Melbourne, Australia. Pooled data are presented as mean ± S.E of specific binding and are fitted using one-site binding curve in GraphPad Prism version 8 (GraphPad Inc., San Diego, USA). Statistical analyses were conducted using one-way analysis of variance with uncorrected Fisher’s least significant difference (LSD) post-hoc analysis in GraphPad Prism version 8.

For assay [2], the target named is T1, RXFP3. As to the kind of experiment: cAMP agonist assay (inhibition of forskolin-induced cAMP, pCRE β-galactosidase reporter) in CHO-K1-RXFP3 cells. The format is cell-based. As to conditions: CHO-K1-RXFP3 cells, inhibition of 5 µM forskolin-induced cAMP, 6 hours; mean ± SEM, n in cell. As for the experimental part:
(§2) The peptides were tested for their ability to inhibit forskolin induced cAMP activity in CHO-K1-RXFP3 or CHO-K1-RXFP4 cells transfected with a pCRE (cAMP Response Element) β-galactosidase reporter plasmid as previously described[9],[34]. For agonist assays cells were stimulated with forskolin (5 µM for RXFP3, 1 µM for RXFP4) plus or minus increasing concentrations of each peptide for 6 hours. For antagonist assays cells were stimulated with forskolin as in agonist assays plus increasing concentrations of each peptide for 10 minutes followed by stimulation with agonist at an ~EC80 concentration for a further 6 hours (10 nM Analogue 2 for RXFP3 and 16.6 nM Analogue 13 for RXFP4). Each peptide was tested in triplicate and each experiment was performed independently at least three times. Agonist data was expressed as the % Forskolin activity whereby 100% was defined as Forskolin alone and 0% as maximum agonist stimulation (1 µM Analogue 2 for RXFP3 and 1 µM Analogue 13 for RXFP4). […] Data were analysed and plotted using GraphPad PRISM 8 and are expressed as the mean ± SEM of the pooled data. Statistical analysis was conducted using one-way ANOVA with Uncorrected Fisher’s LSD post-hoc analysis in GraphPad Prism version 8.

Assay [3] has as its target T1, RXFP3. As to the kind of experiment: cAMP antagonist assay against 10 nM analogue 2 in CHO-K1-RXFP3 cells. In kind it is cell-based. The settings on record: for IC50: CHO-K1-RXFP3 cells; for Emax: SEM, read-out: RXFP3 Emax (antagonist efficacy). On the procedure:
as §2

In assay [4] the target is T2, RXFP4 (Homo sapiens, UniProt Q8TDU9). As to the kind of experiment: Competition binding in CHO-K1-RXFP4 cells (Eu-DTPA-mINSL5). Details: expressed in transfected cells; host or cells: CHO-K1 (ATCC), stably transfected. As to conditions: CHO-K1 cells stably transfected with RXFP4; competition with 5 nM Eu-DTPA-mINSL5; read-out: RXFP4 Binding Ki. As for the experimental part:
as §1

Assay [5] deals with T2, RXFP4. As to the kind of experiment: cAMP agonist assay (inhibition of forskolin-induced cAMP, pCRE β-galactosidase reporter) in CHO-K1-RXFP4 cells. In kind it is cell-based. Details: expressed in transfected cells; host or cells: CHO-K1 (ATCC), stably transfected. The settings on record: CHO-K1-RXFP4 cells, inhibition of 1 µM forskolin-induced cAMP, 6 hours; mean ± SEM, n in cell. As for the experimental part:
as §2

The target of assay [6] is T2, RXFP4. The experiment in a line: cAMP antagonist assay against 16.6 nM analogue 13 in CHO-K1-RXFP4 cells. The format is cell-based. As to conditions: for Emax: SEM, read-out: RXFP4 Emax (antagonist efficacy). Also on record: expressed in transfected cells; host or cells: CHO-K1 (ATCC), stably transfected. As for the experimental part: as §2

Read-outs that look alike come from different tables or passages of the source. Bridge positions count the residues as written; N and C are the ends. Peptide text beside a SMILES is read from it. I, II: the chains in the order shown.

T2 sequence (Q8TDU9 whole entry): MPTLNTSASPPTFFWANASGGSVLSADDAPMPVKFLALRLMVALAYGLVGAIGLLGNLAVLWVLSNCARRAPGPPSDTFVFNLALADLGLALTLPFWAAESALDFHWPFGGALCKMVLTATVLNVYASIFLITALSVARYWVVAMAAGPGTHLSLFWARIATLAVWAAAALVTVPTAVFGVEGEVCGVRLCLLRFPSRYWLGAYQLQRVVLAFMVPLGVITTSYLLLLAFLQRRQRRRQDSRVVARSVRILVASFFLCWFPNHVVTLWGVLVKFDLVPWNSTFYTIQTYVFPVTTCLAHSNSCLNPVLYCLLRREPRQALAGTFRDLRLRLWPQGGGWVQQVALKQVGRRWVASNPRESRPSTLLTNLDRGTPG

As for `CC[C@H](C)[C@@H]1NC(=O)[C@H](Cc2ccccc2)NC(=O)[C@H](CCC(=O)O)NC(=O)[C@H](CC(C)C)NC(=O)CNC(=O)[C@@H](NC(=O)[C@H](CC(C)C)NC(=O)[C@H](CCCNC(=N)N)NC(=O)[C@@H](NC(=O)CNC(=O)[C@H](Cc2ccc(O)cc2)NC(=O)[C@@H]2CCCN2C(=O)[C@H](C)NC(=O)[C@H](C)NC(=O)[C@@H](N)CCCNC(=N)N)C(C)C)CSSC[C@@H]2NC(=O)[C@@H](NC(=O)[C@H](CC(C)C)NC(=O)[C@@H](NC(=O)[C@H](CCC(N)=O)NC(=O)[C@H](CC(C)C)NC(=O)[C@H](CC(=O)O)NC(=O)[C@@H]3CCC(=O)N3)[C@@H](C)O)CSSC[C@H](NC(=O)CNC(=O)[C@H](CC(=O)O)NC(=O)[C@H]([C@@H](C)O)NC2=O)C(=O)N[C@@H](CO)C(=O)N[C@@H](CCSC)C(=O)N[C@@H]([C@@H](C)O)C(=O)N[C@@H](CC(=O)O)C(=O)N[C@@H](CC(C)C)C(=O)N[C@@H](CO)C(=O)N[C@@H](C)C(=O)N[C@@H](CC(C)C)C(=O)N[C@H](C(=O)O)CSSC[C@@H](C(=O)N[C@@H](CCCNC(=N)N)C(=O)O)NC(=O)[C@H]([C@@H](C)O)NC(=O)[C@H](Cc2ccccc2)NC(=O)[C@H]([C@@H](C)CC)NC(=O)[C@H](C(C)C)NC(=O)[C@H](C)NC(=O)[C@H](CCCNC(=N)N)NC1=O` [Analogue 14], the inhibition constant Ki at RXFP3 [1] and on RXFP4 [4] was 24 nM each time. Moreover, the “RXFP3 Activity pEC50” value at RXFP3 [2] was “No activity (3)”. Further, the IC50 at RXFP3 [3] (block of 10 nM analogue 2, read-out: RXFP3 Antagonist potency IC50) is 263 nM; at RXFP4 [6] (CHO-K1-RXFP4 cells, block of 16.6 nM analogue 13, read-out: RXFP4 Antagonist potency IC50) it was 331 nM. Further, the maximum response (Emax) at RXFP3 [3] is 66.5 ± 14.8%; on RXFP4 [6], 37.3 ± 7.6%. Further, the “RXFP4 Activity pEC50” value on RXFP4 [5] is reported as “Weak partial agonist (6)”.
Turning to `CC[C@H](C)[C@@H]1NC(=O)[C@H](Cc2ccccc2)NC(=O)[C@H](CCC(=O)O)NC(=O)[C@H](CCCNC(=N)N)NC(=O)CNC(=O)[C@@H](NC(=O)[C@H](CC(C)C)NC(=O)[C@H](CCCNC(=N)N)NC(=O)[C@@H](NC(=O)CNC(=O)[C@H](Cc2ccc(O)cc2)NC(=O)[C@@H]2CCCN2C(=O)[C@H](C)NC(=O)[C@H](C)NC(=O)[C@@H](N)CCCNC(=N)N)C(C)C)CSSC[C@H](N)C(=O)N[C@@H]([C@@H](C)O)C(=O)N[C@@H](CC(=O)O)C(=O)NCC(=O)N[C@@H](C)C(=O)N[C@@H](CO)C(=O)N[C@@H](CCSC)C(=O)N[C@@H](CCCCN)C(=O)N[C@@H](CC(=O)O)C(=O)N[C@@H](CC(C)C)C(=O)N[C@@H](CO)C(=O)N[C@@H](C)C(=O)N[C@@H](CC(C)C)C(=O)N[C@H](C(=O)O)CSSC[C@@H](C(=O)N[C@@H](CCCNC(=N)N)C(=O)O)NC(=O)[C@H]([C@@H](C)O)NC(=O)[C@H](Cc2ccccc2)NC(=O)[C@H]([C@@H](C)CC)NC(=O)[C@H](C(C)C)NC(=O)[C@H](C)NC(=O)[C@H](CCCNC(=N)N)NC1=O` [Analogue 15] (I: H-RAAPYGVRLCGREFIRAVIFTCR-OH / II: H-CTDGASMKDLSALC-OH; disulfide I:10-II:1, I:22-II:14), the inhibition constant (Ki) on RXFP3 [1] amounted to 15.5 nM; at RXFP4 [4], 22.9 nM. Further, the “RXFP3 Activity pEC50” value at RXFP3 [2] was “No activity (4)”. Further, on RXFP3 [3] (peptide 10 minutes, then 10 nM analogue 2 for 6 hours, 5 µM forskolin, mean ± SEM, read-out: RXFP3 Antagonist potency pIC50 (converted)), the IC50 is > 10000 nM. Also, the Emax turned out to be 43.5 ± 12.1% at RXFP3 [3] and 49.4 ± 6.2% at RXFP4 [6]. The “RXFP4 Activity pEC50” value at RXFP4 [5] is on record as “Weak partial agonist (5)”.

By Ki is commonly meant a measure of affinity in units of concentration, obtained from inhibition or displacement. For orientation: Emax means the maximal effect, on the per cent scale that the assay sets.

Source of the values: publication PMC6882824, “Engineering of chimeric peptides as antagonists for the G protein-coupled receptor, RXFP4” (Scientific Reports, 2019).
